Measurements as given in patent publication US20250313574A1, “SIALIC ACID DERIVATIVES AND METHODS OF USING SAME” (EISAI R&D MANAGEMENT CO., LTD., priority 2022, published 2025).

Tests used:
[1] = molecular target: Recombinant human CD33 protein (Homo sapiens (Human), UniProt P20138); experiment: CD33 competitive binding assay for HTS drug screen (fluorescent multivalent sialic acid probe)
How it was run: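 Inhibition was read as reduced retention of a fluorescent multivalent sialic acid complex (final 5 μM neutravidin, 15 μM A-375, 5 μM biotin-4-FITC) on plate-immobilized human CD33. Compound was added first, the probe followed for 30 min at room temperature in PBS with 0.2% Tween-20 and 0.5% BSA, and FITC was measured after a wash.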

[2] = molecular target: Recombinant Human Siglec-3/CD33 protein (His-CD33) (Homo sapiens (Human), UniProt P20138); experiment: Differential scanning fluorimetry (DSF) thermal shift assay; type: binding; conditions: difference in thermal melt of CD33 protein (0.5 μM) with 50 μM compound
Sequence of Recombinant Human Siglec-3/CD33 protein (His-CD33) (P20138 18-259): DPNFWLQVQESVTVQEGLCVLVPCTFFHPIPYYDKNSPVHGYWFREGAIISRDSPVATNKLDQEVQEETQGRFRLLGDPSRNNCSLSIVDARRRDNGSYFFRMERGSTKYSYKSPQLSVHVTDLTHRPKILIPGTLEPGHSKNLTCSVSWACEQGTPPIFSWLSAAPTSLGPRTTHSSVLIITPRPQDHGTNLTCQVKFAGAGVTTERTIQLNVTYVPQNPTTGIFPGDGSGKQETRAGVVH

Sequence of Recombinant human CD33 protein (P20138 18-259): as above

Compound | EC50 [1] [µM] | DSF (dTmD) [2] [°C]
CC(=O)N[C@H]1[C@H]([C@H](O)[C@H](O)CNC(=O)c2cc(C)c(O)c(C)c2)O[C@@](CC(O)[C@@H](O)c2cccc(NC(=O)CC(C)(C)C)c2)(C(=O)O)C[C@@H]1O (stereo partly drawn) [A-304] | 4.7 | 3.9
CC(=O)N[C@H]1[C@H]([C@H](O)[C@H](O)CNC(=O)c2cc(C)c(O)c(C)c2)O[C@@](CC2OC(C)(C)O[C@H]2c2cccc(NC(=O)C(=O)[C@H](C)c3cc(C4CC4)no3)c2)(C(=O)O)C[C@@H]1O (stereo partly drawn) [A-305] | 0.792 | 5.4
CC(=O)N[C@H]1[C@H]([C@H](O)[C@H](O)CNC(=O)c2cc(C)c(O)c(C)c2)O[C@@](CC2COC(C)(C)O2)(C(=O)O)C[C@@H]1O (stereo partly drawn) [A-307] | 103 | 0.0
CC(=O)N[C@H]1[C@H]([C@H](O)[C@H](O)CNC(=O)c2cc(C)c(O)c(C)c2)O[C@@](CC2OC(C)(C)O[C@H]2c2cccc(C(=O)NCc3ccccc3)c2)(C(=O)O)C[C@@H]1O (stereo partly drawn) [A-311] | 6.36 | 0.5
CC(=O)N[C@H]1[C@H]([C@H](O)[C@H](O)CNC(=O)c2cc(C)c(O)c(C)c2)O[C@@](CC2OC(C)(C)O[C@@H]2c2cccc(C(=O)NCc3ccccc3)c2)(C(=O)O)C[C@@H]1O (stereo partly drawn) [A-312] | 0.159 | 4.5
CC(=O)N[C@H]1[C@H]([C@H](O)[C@H](O)CNC(=O)c2cc(C)c(O)c(C)c2)O[C@@](CC2OC(C)(C)O[C@H]2c2cccc(CN3CCOCC3)c2)(C(=O)O)C[C@@H]1O (stereo partly drawn) [A-313] | 11.9 | 0.0
CC(=O)N[C@H]1[C@H]([C@H](O)[C@H](O)CNC(=O)c2cc(Cl)c(O)c(Cl)c2)O[C@@](CC2OC(C)(C)O[C@H]2c2cccc(C(=O)NCc3ccccc3)c2)(C(=O)O)C[C@@H]1O (stereo partly drawn) [A-321] | 0.22 | 7.2
CC(=O)N[C@H]1[C@H]([C@H](O)[C@H](O)CNC(=O)c2cc(Cl)c(O)c(Cl)c2)O[C@@](CC2OC(C)(C)O[C@@H]2c2cccc(C(=O)NCc3ccccc3)c2)(C(=O)O)C[C@@H]1O (stereo partly drawn) [A-322] | 7.79 | 3.0
Cc1cc(C(=O)NC[C@@H](O)[C@@H](O)[C@@H]2O[C@@](OCCOCCNC(=O)OCc3ccccc3)(C(=O)O)C[C@H](O)[C@H]2NC(=O)Cn2cc(C3CCCCC3)nn2)cc(C)c1O [A-323] | 10.9 | 4.4
Cc1cc(C(=O)NC[C@@H](O)[C@@H](O)[C@@H]2O[C@@](OC3CCCCC3NC(=O)CNC(=O)OCc3ccccc3)(C(=O)O)C[C@H](O)[C@H]2NC(=O)Cn2cc(C3CCCCC3)nn2)cc(C)c1O (stereo partly drawn) [A-324] | 3.67 | 3.2
Cc1cc(C(=O)NC[C@@H](O)[C@@H](O)[C@@H]2O[C@@](OC3CCCCC3NC(=O)CN(C)C(=O)OCc3ccccc3)(C(=O)O)C[C@H](O)[C@H]2NC(=O)Cn2cc(C3CCCCC3)nn2)cc(C)c1O (stereo partly drawn) [A-325] | 13.2 | 3.3
Cc1cc(C(=O)NC[C@@H](O)[C@@H](O)[C@@H]2O[C@@](OC3CCCCC3NC(=O)CN(C)C(=O)OCc3cccc(C(=O)NC4CC4)c3)(C(=O)O)C[C@H](O)[C@H]2NC(=O)Cn2cc(C3CCCCC3)nn2)cc(C)c1O (stereo partly drawn) [A-326] | 13.6 | 4.0
CNC(=O)c1cccc(COC(=O)NCC(=O)NC2CCCCC2O[C@]2(C(=O)O)C[C@H](O)[C@@H](NC(=O)Cn3cc(C4CCCCC4)nn3)[C@H]([C@H](O)[C@H](O)CNC(=O)c3cc(C)c(O)c(C)c3)O2)c1 (stereo partly drawn) [A-327] | 6.61 | 3.2
Cc1cc(C(=O)NC[C@@H](O)[C@@H](O)[C@@H]2O[C@@](OC3CCCCC3NC(=O)CNC(=O)CC3CCOCC3)(C(=O)O)C[C@H](O)[C@H]2NC(=O)Cn2cc(C3CCCCC3)nn2)cc(C)c1O (stereo partly drawn) [A-328] | 12.3 | 1.4
Cc1cc(C(=O)NC[C@@H](O)[C@@H](O)[C@@H]2O[C@@](OC3CCCCC3NC(=O)CNC(=O)COC3CCCC3)(C(=O)O)C[C@H](O)[C@H]2NC(=O)Cn2cc(C3CCCCC3)nn2)cc(C)c1O (stereo partly drawn) [A-329] | 15.2 | 1.4
Cc1cc(C(=O)NC[C@@H](O)[C@@H](O)[C@@H]2O[C@@](OC3CCCCC3NC(=O)Cn3cc(CNC(=O)c4cccc(C#N)c4)nn3)(C(=O)O)C[C@H](O)[C@H]2NC(=O)Cn2cc(C3CCCCC3)nn2)cc(C)c1O (stereo partly drawn) [A-330] | 4.81 | 5.0
Cc1cc(C(=O)NC[C@@H](O)[C@@H](O)[C@@H]2O[C@@](OC3CCCCC3NC(=O)Cn3cc(Cn4ncc5ccccc5c4=O)nn3)(C(=O)O)C[C@H](O)[C@H]2NC(=O)Cn2cc(C3CCCCC3)nn2)cc(C)c1O (stereo partly drawn) [A-331] | 4.33 | 4.9

Other lines, results leading:

EC50 [1] [µM] | DSF (dTmD) [2] [°C] | Compound
1.5 | 4.9 | CC(=O)N[C@H]1[C@H]([C@H](O)[C@H](O)CNC(=O)c2cc(C)c(O)c(C)c2)O[C@@](CC2OC(C)(C)O[C@H]2c2cccc(NC(=O)CC(C)(C)C)c2)(C(=O)O)C[C@@H]1O (stereo partly drawn) [A-303]
0.54 | 5.2 | CC(=O)N[C@H]1[C@H]([C@H](O)[C@H](O)CNC(=O)c2cc(C)c(O)c(C)c2)O[C@@](CC2OC(C)(C)O[C@H]2c2cccc(N3CCCC3=O)c2)(C(=O)O)C[C@@H]1O (stereo partly drawn) [A-309]
3.24 | 3.5 | CC(=O)N[C@H]1[C@H]([C@H](O)[C@H](O)CNC(=O)c2cc(C)c(O)c(C)c2)O[C@@](CC2OC(C)(C)O[C@H]2c2ccccc2CNC(=O)OC(C)(C)C)(C(=O)O)C[C@@H]1O (stereo partly drawn) [A-310]
7.85 | 0.1 | CC(=O)N[C@H]1[C@H]([C@H](O)[C@H](O)CNC(=O)c2cc(C)c(O)c(C)c2)O[C@@](CC2OC(C)(C)O[C@H]2c2cccc3c2CN(C(=O)OC(C)(C)C)C3)(C(=O)O)C[C@@H]1O (stereo partly drawn) [A-314]
1.14 | 4.2 | CC(=O)N[C@H]1[C@H]([C@H](O)[C@H](O)CNC(=O)c2cc(C)c(O)c(C)c2)O[C@@](CC2OC(C)(C)O[C@H]2c2cccc(CC(=O)OC(C)(C)C)c2)(C(=O)O)C[C@@H]1O (stereo partly drawn) [A-315]
4.86 | 3.8 | CC(=O)N[C@H]1[C@H]([C@H](O)[C@H](O)CNC(=O)c2cc(C)c(O)c(C)c2)O[C@@](CC2OC(C)(C)O[C@H]2c2cccc(N3CCCCC3=O)c2)(C(=O)O)C[C@@H]1O (stereo partly drawn) [A-316]
0.92 | 6.5 | CC(=O)N[C@H]1[C@H]([C@H](O)[C@H](O)CNC(=O)c2cc(C)c(O)c(C)c2)O[C@@](CC2OC(C)(C)O[C@H]2c2ccc(F)c(N3CCCC3=O)c2)(C(=O)O)C[C@@H]1O (stereo partly drawn) [A-317]
0.13 | 7.4 | CC(=O)N[C@H]1[C@H]([C@H](O)[C@H](O)CNC(=O)c2cc(C)c(O)c(C)c2)O[C@@](CC2OC(C)(C)O[C@H]2c2cc(N3CCCC3=O)ccc2C)(C(=O)O)C[C@@H]1O (stereo partly drawn) [A-318]
4.22 | 2.8 | CC(=O)N[C@H]1[C@H]([C@H](O)[C@H](O)CNC(=O)c2cc(C)c(O)c(C)c2)O[C@@](CC2OC(C)(C)O[C@H]2c2ccc(C)c(N3CCCC3=O)c2)(C(=O)O)C[C@@H]1O (stereo partly drawn) [A-319]
0.96 | 4.8 | CC(=O)N[C@H]1[C@H]([C@H](O)[C@H](O)CNC(=O)c2cc(C)c(O)c(C)c2)O[C@@](CC2OC(C)(C)O[C@@H]2c2ccc(C)c(N3CCCC3=O)c2)(C(=O)O)C[C@@H]1O (stereo partly drawn) [A-320]
